The text below walks through data of patent US20040229873A1, “Treatment of neurodegenerative conditions” (BTG International Limited, priority 2003, published 2004).

For series [1], the system named is patients suffering from MS. In words: Case studies of MS patients treated with Lamotrigine, compared with matching patients. In kind it is in vivo, human. An excerpt: The average maintenance dose of Lamotrigine in these conditions is 400 mgs per day, but the initial dose or the rate of escalation may cause several side effects.
In the present study, the inventors followed the clinician inventor's clinical practice, which adopted two strategies that had varied from the manufacturer's recommendations. Firstly, a very slow titration process starting with 25 mgs per day increasing the dose gradually (often over several weeks) to avoid adverse events. Secondly, a maintenance dose with mean of 600 mgs per day was applied. Using these two strategies, the inventors observed improvement in the clinical activity of MS and also stabilisation of the disease process. The beneficial effects are illustrated in the following two case studies compared with matching patients who had not been treated with Lamotrigine.
The first treated patient was a person. […] They were referred to the clinician inventor in 1998, and their clinically active disease at that time represented a valid indication for treatment with diseases modifying therapy (β-interferon or Copaxone). However, the therapy could not be started because of financial constraints that were then imposed by their Health Authority. They also complained of sharp pain affecting the legs, which was resistant to several types of analgesia and also resistant to tricyclic antidepressants. Accordingly, treatment was started with Lamotrigine to treat their pain.
The initial dose was 25 mgs per day, which was escalated gradually as outlined above. Their Expanded Disability Status Scale at that time was 2.5. Their painful symptoms improved following Lamotrigine therapy. They also noticed improvement in their other MS-related symptoms, such as muscle spasticity in the legs and daytime fatigue. […] Their EDSS score remained stable at 2.5. Such improvement seemed to be related to Lamotrigine therapy because they had received no immunosuppressive or steroid therapy during the past four years.
A second of Lamotrigine-treated patient was a person, who was diagnosed with relapsing remitting MS five years ago. They also had idiopathic generalised epilepsy since childhood, which was treated with sodium valproate. In the first two years following the diagnosis of MS, they had three clinical relapses. Their seizures also deteriorated and because of this, their anti-epileptic therapy was changed from sodium valproate to Lamotrigine. This drug was introduced at a low dose, and was escalated cautiously as outlined above. Their EDSS score at the beginning of treatment with Lamotrigine was 1.5. […] This improvement seemed to be related to Lamotrigine therapy since they had received no treatment with steroids or immunosuppressive drugs.

The test system of series [2] is multiple sclerosis patients. Particulars: cited from earlier work; for treatment of symptoms of MS / clinical positive and negative symptoms of MS: Sakurai and Kanazawa 1999; for clinical positive and negative symptoms of MS: low doses, lidocaine by iv infusion.
The mark [3] stands for this setting: seven MS patients, slow titration from 25 mgs per day, maintenance dose with mean of 600 mgs per day.

With `CN(C)CCC=C1c2ccccc2CCc2ccccc21` [Amitriptyline], in series [1] (Example 1b control, person, active relapsing remitting MS), the clinical relapses entry is “continued to have clinical relapses on a yearly basis”. Also, the painful symptoms result in series [1] (Example 1b control, person, active relapsing remitting MS, intractable pain) is listed as “improved”.
For `Nc1nnc(-c2cccc(Cl)c2Cl)c(N)n1` [Lamotrigine, 3,5-diamino-6-(2,3-dichlorophenyl)-1,2,4-triazine], in series [1] (Example 1a, person), the “other MS-related symptoms, such as muscle spasticity in the legs and daytime fatigue” value is “improvement”. Further, the clinical relapses result was “no clinical relapses since 1998” in series [1] (Example 1a, person, relapsing remitting MS, average of one severe relapse per year before, Lamotrigine from 25 mgs per day escalated gradually) and “no clinical relapses” in series [1] (Example 2a, person, relapsing remitting MS, three relapses in first two years before Lamotrigine). For the same molecule, the painful symptoms result in series [1] (Example 1a, person, sharp pain affecting the legs) is “improved”. Also, the EDSS score in series [1] (Example 1a, person, remained stable under Lamotrigine (2.5 at start)) is 2.5; in series [1] (Example 2a, person, remained stable under Lamotrigine (1.5 at start)), 1.5. The MS activity result in series [1] (Examples 3-7, five other patients treated with Lamotrigine) is recorded as “clinical improvement”. Further, in series [1] (setting [3]), the “clinical activity of MS” value was “improvement”. Also, the disease process entry in series [1] (setting [3]) is “stabilisation”.
Turning to `NC(=O)N1c2ccccc2C=Cc2ccccc21` [carbamazepine], the “treatment of symptoms of MS” value in series [2] was “without appropriate success”. Besides, in series [2] (even at relatively low doses, Ramsaransing et al (2000)), the “disability in multiple sclerosis patients” value was “seriously enhance disability”.
Turning to `CCN(CC)CC(=O)Nc1c(C)cccc1C` [lidocaine], the “clinical positive and negative symptoms of MS” value in series [2] was “generally improve clinical positive symptoms rather than worsening negative symptoms”.
For the molecule `Cc1cccc(C)c1OCC(C)N` (stereo not shown) [mexiletine], the “clinical positive and negative symptoms of MS” value in series [2] was “generally improve clinical positive symptoms rather than worsening negative symptoms”.
Turning to `O=C1NC(=O)C(c2ccccc2)(c2ccccc2)N1` [phenytoin], the “treatment of symptoms of MS” value in series [2] is on record as “without appropriate success”.
